Results from patent US10662225B2, “Backbone cyclized inhibitory peptides of myeloid differentiation factor 88 (MyD88)” (Yissum Research Development Company of the Hebrew …, priority 2016, dated 2020).
Entries after “also recorded” stand apart in the source; their conditions may differ. Numbered stars: 1 amine (or outer) side, 2 acyl side, 3 side chain; on linkers, the order of the positions; unused ones are H or OH. Bridge positions count the residues as written; N and C are the ends. Square brackets hold non-standard residues; d marks the D form. Peptide text beside a SMILES is read from it. CO = O=C([*:1])[*:2]; Nlys = NCCCCNCC(=O)O

Experiments:
[1] = test system: OCI-LY3 (MyD88 L265P) cells; assay: Proliferation of lymphoma cells (Promega CellTiter viability assay); type: cell-based, human; conditions: 48 h; compared with OCI-LY19 (MyD88 WT)
Method: FIGS. 18A and 18B. 4×4MyDI and Myr-4×4MyDI block proliferation of Ly3 lymphoma cells that carry the L265P oncogenic mutation in MyD88. Cell lines OCI-LY3 (MyD88^L265P) and OCI-LY19 (MyD88^WT) were grown in RPMI supplemented with 10% FCS. Cells were counted and plated at identical concentrations in triplicate wells of 96 well plates and decreasing concentrations of 4×4MyDI […], or Myr-4×4MyDI (19B), was added to the wells. After 48 h cell viability was tested using the Promega CellTiter viability assay according to the manufacturer's instructions. Percent inhibition was calculated as [(1-OD of well with inhibitor/OD of well without inhibitor)*1001. Negative values in A represent enhanced growth in the presence of the inhibitor.
Genomic DNA was prepared from the human lymphoma cell lines OCI-LY3 (MyD88^L265P) and OCI-LY19 (MyD88^WT) to confirm the presence of the activating L265P mutation in the OCI-Ly3 cells (and the WT sequence in the OCI-Ly19 cells). The MyD88 region was amplified using the forward and reverse primers GGGATATGCTGAACTAAGTTGCCAC (SEQ ID NO: 7) and GACGTGTCTGTGAAGTTGGCATCTC (SEQ ID NO: 8), respectively, as described in Xu, L. et al Blood (2013) 121(11): 2051-2058. The PCR product was sequenced to confirm the mutation.
The cell lines were incubated alone or with increasing concentrations of the 4×4MyDI. […]

MOG35-55/CFA induced EAE = MOG35-55/CFA induced EAE model of multiple sclerosis; type: in vivo, mice
Method: FIG. 2. MIP treatment reduces severity of EAE. Mice were immunized with MOG35-55/CFA with PTX administration at day 0 and at 48 h. Groups of mice were treated with MIP (SEQ ID NO: 1, squares) or PBS (triangles) and mean clinical score was calculated.
FIG. 8. 4×4MyDI lowers disease in mouse EAE model. Mice were immunized with MOG35-55/CFA with PTX administration at day 0 and at 48 h. Groups of mice were treated with 4×4MyDI (squares, n=7) or PBS as control (circles, n=4) from day 0, three times a week.
FIG. 15. 4×4MyDI reduces severity of EAE. C57BL/6 mice were immunized with MOG35-55/CFA and administered pertussis toxin on day zero and after 48 h. Groups of mice were treated with 4×4MyDI at 4 mg/kg from day zero, three times a week, for a total of 9 treatments (squares, n=7) or an identical volume of PBS as control, using the same schedule of administration (circles, n=7). […] Clinical disease was scored daily. ***P<0.0001, 2-way ANOVA.
Effective peptides are examined for treatment of mice with EAE (the animal model of MS) applying several disease models. One model is described in Owens T. and Sriram S. Neurologic Clinics (1995) 13(1):51-73. In this model, C57B1 mice are immunized with the MOG protein in adjuvant and the onset of paralysis which appears 10-14 days following the induction, is evaluated daily. Two groups of animals are treated with two doses of the peptide administered orally by cannula on a daily basis, from the day of EAE-induction. One month after the disease onset, the animals are sacrificed and their brains and spinal cords are processed for histopathological analysis (performed by a blinded for the treatment arm, neuropathologist). This includes the evaluation of the number of inflammatory infiltrates and the number of cells per infiltrate, the degree of demyelination and of axonal damage. Another EAE model for MS which can be used for the compounds of the present invention and for identifying additional Myd88 inhibitors is described in Prinz et al 2006, J Clin Investigation, 116, 2 456-464, and Cohen et al 2010, J Immunol 184(1):212-21). In this model, C57B1 mice are immunized with MOG35-55 peptide ([…], SEQ ID NO: 4) emulsified in complete Freund's adjuvant (CFA) and pertussis toxin is administered systemically at the time of immunization and 48 h later. Mice are treated with the Myd88 inhibitor systemically and the mice are followed for development of ascending paralysis which typically begins on day 8-10 following immunization.
The effect of MIP administration on the clinical outcome of MOG35-55/CFA induced EAE was tested. […]
Following bioactivity characterization in vitro, the lead compound was evaluated for efficacy using the in vivo murine MOG35-55-induced EAE model of multiple sclerosis. […]

[2] = Metabolic stability in plasma with Brush Border Membrane Vesicles (BBMV); type: in vitro ADME; conditions: human; over two hours; read-out: decrease of amount in plasma enriched with BBMV
Method: FIGS. 17A and 17B. 4×4MyDI is metabolically stable in comparison to the linear MyDI peptide. 4×4MyDI vs. linear MyDI heptapeptide were incubated independently in either human plasma […] or human plasma supplemented with Brush Border Membrane Vesicles (BBMV, 18B). At various time points the solution was sampled and the amount of remaining compound was determined by quantitative HPLC.
Peptide backbone cyclization confers metabolic stability on peptides that are inherently susceptible to degradation by proteases. […] The stability of the compounds was then tested in plasma enriched with Brush Border Membrane Vesicles (BBMV). This system models the degradative conditions of the intestine.

In the case of `CC(C)C[C@@H]1NC(=O)[C@H](C(C)C)NC(=O)[C@H](CC(=O)O)NC(=O)[C@H](CCCNC(=N)N)NC(=O)CN(C(=O)[C@@H](N)Cc2c[nH]c3ccccc23)CCCCNC(=O)NCCCCN(CC(=O)NCC(=O)N[C@H](C(N)=O)[C@@H](C)O)C1=O` [4×4MyDI] (H-W[Nlys]RDVL[Nlys]GT-NH2; linker 2-7 via CO; N-terminus assumed), the “proliferation of OCI-Ly3 cells” value [1] was “specifically blocked proliferation”, the EAE disease severity (MOG35-55/CFA induced EAE; 4 mg/Kg i.p. three times a week from day 0) was “significant reduction in disease severity; also recorded: significantly reduced disease severity” and the EAE disease severity (MOG35-55/CFA induced EAE; 4 mg/Kg i.p. three times a week from day 7) was “behaved similarly to the control group”. For the same molecule, the EAE disease severity (MOG35-55/CFA induced EAE; 40 mg/Kg on day zero and day three only) was “reduced disease severity even further”, the survival (MOG35-55/CFA induced EAE; 4×4MyDI from day 0, three times a week, vs PBS) was “better rate of survival” and the metabolised at 2 h [2] was 40%.
